Data reported in patent US12258358B1, “Ferrocene-substituted organometallic complexes” (THE REGENTS OF THE UNIVERSITY OF CALIFORNIA, priority 2023, dated 2025).

Assay: Cyclic voltammetry (CV) in MeCN electrolyte solution
Assay type: physicochemical
Conditions: for range over which the redox couples are observed (estimation of the Vcell): symmetric battery configuration assumed
Procedure: Cyclic voltammetry (CV) measurements were used to determine the E1/2 values for 2-OTf and 3-OTf, and those measurements were performed in 0.1 Bu4NBF4 MeCN solution. Five redox couples, corresponding to 8 electron transfer (ET) events were observed over the potential range for 2-OTf and 3-OTf, respectively (FIGS. 3A and 3B). The electrochemistry of 2 is expected to be the same as 2-OTF, although 2-OTf has different solubility. The range of about 1.8 V over which the redox couples are observed provides an estimation of the Vcell for a battery which could be constructed using 2^+ as the analyte, if the battery is constructed with a symmetric configuration where 2 is the analyte for both the cathode and anode.
Cyclic voltammograms (CVs) were recorded in a nitrogen-filled glovebox with a CH Instruments Electrochemical Analyzer Model 620D or 1400 with a glassy carbon working electrode (CH Instruments, nominal surface area of 0.071 cm^2), a platinum wire auxiliary electrode, and an Ag/AgNO3 (0.001M) non-aqueous reference electrode with a Vycor tip. All potentials are referenced to the SCE couple, and ferrocene was used as an external standard where the E1/2 of ferrocene/ferrocenium is +0.40 V vs. SCE in 0.1 M Bu4NPF6 MeCN. Bu4NPF6 was recrystallized from ethanol and placed under vacuum for 72 hours before electrolyte solutions were made. Electrolyte solutions were stored over 3 Å molecular sieves for at least 48 hours before use. Sieves were activated by heating under vacuum at 270° C. for at least 72 hours. UV-Vis spectra were obtained using a 1 cm cuvette using an Agilent 8453 UV-vis spectrophotometer.

[1] = 0.1 Bu4NBF4 MeCN solution, glassy carbon working electrode

Row | Substance | electron transfer (ET) events observed over the potential range (five redox couples) (0.1 Bu4NBF4 MeCN solution) | range over which the redox couples are observed (estimation of the Vcell) | E1/2 of the 3^0/− couple [1] | E1/2 of the 3^2+/+ couple [1] | E1/2 of the 3^6+/2+ four-electron couple [1] | E1/2 of the 3^+/0 couple [1] | E1/2 of the 3^−/2− couple [1]
1 | [(FcI2P^−)2Al)]OTf [Complex 2-OTf] | 8 | about 1.8 V | – | – | – | – | –
2 | [(^EtOFcI2P^−)2Al)](OTf) [Complex 3-OTf] | 8 | 1.9 V | −1.02 V vs SCE | +0.00 V vs SCE | +0.60 V vs SCE | −0.33 V vs SCE | −1.39 V vs SCE
